Experimental findings from US20100137313A1 (ASTRAZENECA AB, priority 2008, published 2010) are described below.

In this assay the target is S. pneumoniae Topoisomerase IV ATPase (ParE) (Streptococcus pneumoniae serotype 4, UniProt Q59961). As to the kind of experiment: S. pneumoniae Topoisomerase IV ATPase inhibition. It is filed as biochemical. Particulars: values marked * are an average of two or more data points, read-out: % Inh (13 μM) of S. pneumoniae Topoisomerase IV ATPase. The procedure, abridged: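 Phosphate-release ATPase assay: 1.25 nM ParE, 160 μM ATP, DNA-stimulated. Quench with malachite green/molybdate in 1 M HCl, read 650 nm; IC50 from 10-point dose series.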
Sequence of S. pneumoniae Topoisomerase IV ATPase (ParE) (Q59961 whole entry): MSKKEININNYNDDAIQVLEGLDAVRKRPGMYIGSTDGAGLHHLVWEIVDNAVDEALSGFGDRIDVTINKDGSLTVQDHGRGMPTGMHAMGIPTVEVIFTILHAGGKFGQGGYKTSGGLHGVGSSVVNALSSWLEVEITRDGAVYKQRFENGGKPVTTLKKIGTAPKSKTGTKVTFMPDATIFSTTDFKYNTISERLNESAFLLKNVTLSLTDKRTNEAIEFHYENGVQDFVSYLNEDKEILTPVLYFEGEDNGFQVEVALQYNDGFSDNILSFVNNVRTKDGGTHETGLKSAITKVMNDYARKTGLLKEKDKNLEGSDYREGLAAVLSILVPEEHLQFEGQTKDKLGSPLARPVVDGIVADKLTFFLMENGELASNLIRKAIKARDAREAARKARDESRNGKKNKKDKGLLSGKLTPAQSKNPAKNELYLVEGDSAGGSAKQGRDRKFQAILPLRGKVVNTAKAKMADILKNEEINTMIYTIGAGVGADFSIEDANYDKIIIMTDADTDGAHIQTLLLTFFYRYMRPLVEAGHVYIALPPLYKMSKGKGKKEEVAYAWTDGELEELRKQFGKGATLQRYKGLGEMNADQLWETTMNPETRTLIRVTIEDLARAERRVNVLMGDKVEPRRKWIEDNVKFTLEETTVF
Consider `CCS(=O)(=O)NC(=O)c1cc(-c2cnc(Nc3cc(OC)cc(OC)c3)nc2-n2ccc(C(F)(F)F)n2)cn(CCOC)c1=O` [Example 1164], for which the inhibition at 13 µM is 100%.

Turning to `COc1ncc(-c2cnc(Nc3cccc(C(C)=O)c3)nc2-n2ccc(C(F)(F)F)n2)cc1C(=O)O` [Example 720, 5-{2-[(3-acetylphenyl)amino]-4-[3-(trifluoromethyl)-1H-pyrazol-1-yl]pyrimidin-5-yl}-2-methoxypyridine-3-carboxylic acid], the inhibition at 13 µM is 100%.

`CN(C)CCCNc1nc(Nc2ccc(F)c(Cl)c2)ncc1-c1ccc2sc(C(=O)O)cc2c1` [Example 217, 5-(2-(3-chloro-4-fluorophenylamino)-4-(3-(dimethylamino)propylamino)pyrimidin-5-yl)benzo[b] thiophene-2-carboxylic acid]: the inhibition at 13 µM worked out at 82.4%.

Regarding `O=C(O)C1CCCCN1c1cccc(-c2cnc(Nc3ccc(F)c(Cl)c3)nc2-n2ccc(C(F)(F)F)n2)c1` (stereo not drawn) [Example 602, 1-(3-{2-[(3-chloro-4-fluorophenyl)amino]-4-[3-(trifluoromethyl)-1H-pyrazol-1-yl]pyrimidin-5-yl}phenyl)piperidine-2-carboxylic acid], the inhibition at 13 µM is 100%.

With `O=C(O)c1cncc(-c2cnc(Nc3ccc(F)c(Cl)c3)nc2NCCCN2CCS(=O)(=O)CC2)c1` [Example 232, 5-{2-(3-Chloro-4-fluoro-phenylamino)-4-[3-(1,1-dioxo-1λ^6-thiomorpholin-4-yl)-propylamino]-pyrimidin-5-yl}-nicotinic acid], the inhibition at 13 µM came out at 81%.

With `Cn1cc(CNc2nc(Nc3ccc(F)c(Cl)c3)ncc2-c2cccc(/C=C/C(=O)O)c2)cn1` [Example 298, (E)-3-(3-(2-(3-chloro-4-fluorophenylamino)-4-((1-methyl-1H-pyrazol-4-yl)methylamino)pyrimidin-5-yl)phenyl)acrylic acid], the inhibition at 13 µM is 80.7%.

In the case of `Cc1cc(C(F)(F)F)nn1-c1nc(Nc2ccc(F)c(Cl)c2)ncc1-c1cnc(OCCN2CCOCC2)c(C(=O)O)c1` [Example 1141, 5-(2-(3-chloro-4-fluorophenylamino)-4-(5-methyl-3-(trifluoromethyl)-1H-pyrazol-1-yl)pyrimidin-5-yl)-2-(2-morpholinoethoxy)nicotinic acid], the inhibition at 13 µM was 100%.

`COc1cc(Nc2ncc(-c3cnc(-n4cncn4)c(C(=O)O)c3)c(-n3ccc(C(F)(F)F)n3)n2)cc(OC)c1` [Example 588, 5-(2-(3,5-dimethoxyphenylamino)-4-(3-(trifluoromethyl)-1H-pyrazol-1-yl)pyrimidin-5-yl)-2-(1H-1,2,4-triazol-1-yl)nicotinic acid]: the inhibition at 13 µM was found to be 100%.

Turning to `Cc1cc(-c2nccs2)nn1-c1nc(Nc2ccc(F)c(Cl)c2)ncc1-c1cncc(C(=O)O)c1` [Example 529, 5-{2-[(3-chloro-4-fluorophenyl)amino]-4-[5-methyl-3-(1,3-thiazol-2-yl)-1H-pyrazol-1-yl]pyrimidin-5-yl}pyridine-3-carboxylic acid], the inhibition at 13 µM was found to be 100%.

As for `COCCn1cc(-c2cnc(Nc3ccc(F)c(Cl)c3)nc2-n2ccc(C(F)(F)F)n2)cc(C(=O)O)c1=O` [Example 1081, 5-(2-(3-Chloro-4-fluorophenylamino)-4-(3-(trifluoromethyl)-1H-pyrazol-1-yl)pyrimidin-5-yl)-1-(2-methoxyethyl)-2-oxo-1,2-dihydropyridine-3-carboxylic acid], the inhibition at 13 µM worked out at 100%.

For the compound `O=C(O)/C=C/c1cccc(-c2cnc(Nc3ccc(F)c(Cl)c3)nc2NCCn2ccnc2)c1` [Example 266, (2E)-3-[3-(2-[(3-chloro-4-fluorophenyl)amino]-4-{[2-(1H-imidazol-1-yl)ethyl]amino}pyrimidin-5-yl)phenyl]prop-2-enoic acid], the inhibition at 13 µM was 109%.

In the case of `CC(C)Nc1nc(Nc2ccc(F)c(Cl)c2)ncc1-c1cncnc1` [Example 59, N^2-(3-chloro-4-fluorophenyl)-N^4-propan-2-yl-5-pyrimidin-5-ylpyrimidine-2,4-diamine], the inhibition at 13 µM worked out at 51.8%.

`COc1cc(C#N)cc(Nc2ncc(-c3cccc(/C=C/C(=O)O)c3)c(-n3ccc(C(F)(F)F)n3)n2)c1` [Example 728, (2E)-3-(3-{2-[(3-cyano-5-methoxyphenyl)amino]-4-[3-(trifluoromethyl)-1H-pyrazol-1-yl]pyrimidin-5-yl}phenyl)prop-2-enoic acid]: the inhibition at 13 µM is 100%.

As to `CN(C)CCCNc1nc(Nc2ccc(F)c(Cl)c2)ncc1-c1ccc(C(=O)NCc2ccccc2)s1` [Example 368, N-benzyl-5-(2-(3-chloro-4-fluorophenylamino)-4-(3-(dimethylamino)propylamino)pyrimidin-5-yl) thiophene-2-carboxamide], the inhibition at 13 µM was found to be 105%.

In the case of `Cn1cncc1CNc1nc(Nc2ccc(F)c(Cl)c2)ncc1-c1cncc(C(=O)O)c1` [Example 281, 5-(2-(3-chloro-4-fluorophenylamino)-4-((1-methyl-1H-imidazol-5-yl)methylamino)pyrimidin-5-yl)nicotinic acid], the inhibition at 13 µM stood at 95.8%.

Turning to `CS(=O)(=O)CCn1cc(-c2cnc(Nc3ccc(F)c(Cl)c3)nc2-n2ccc(C(F)(F)F)n2)cc(C(=O)O)c1=O` [Example 1091, 5-(2-(3-Chloro-4-fluorophenylamino)-4-(3-(trifluoromethyl)-1H-pyrazol-1-yl)pyrimidin-5-yl)-1-(2-(methylsulfonyl)ethyl)-2-oxo-1,2-dihydropyridine-3-carboxylic acid], the inhibition at 13 µM is 100%.

As for `CONC(=O)c1cncc(-c2cnc(Nc3cc(OC)cc(OC)c3)nc2-n2nc(C(F)(F)F)cc2C)c1` [Example 681, 5-{2-[(3,5-dimethoxyphenyl)amino]-4-[5-methyl-3-(trifluoromethyl)-1H-pyrazol-1-yl]pyrimidin-5-yl}-N-methoxypyridine-3-carboxamide], the inhibition at 13 µM is 100%.

Consider `O=C(O)Cn1nccc1-c1cnc(Nc2ccc(F)c(Cl)c2)nc1-n1ccc(C(F)(F)F)n1` [Example 1137, 2-(5-(2-(3-chloro-4-fluorophenylamino)-4-(3-(trifluoromethyl)-1H-pyrazol-1-yl)pyrimidin-5-yl)-1H-pyrazol-1-yl)acetic acid], for which the inhibition at 13 µM came to 100%.

Take `COCCn1cc(-c2cnc(Nc3cc(OC)cc(OC)c3)nc2-n2nc(C(F)(F)F)cc2C)cc(C(=O)O)c1=O` [Example 1160, 5-(2-(3,5-dimethoxyphenylamino)-4-(5-methyl-3-(trifluoromethyl)-1H-pyrazol-1-yl)pyrimidin-5-yl)-1-(2-methoxyethyl)-2-oxo-1,2-dihydropyridine-3-carboxylic acid]: the inhibition at 13 µM was found to be 100%.

For the compound `NC(=O)CCNc1nc(Nc2ccc(F)c(Cl)c2)ncc1-c1cncnc1` [Example 42, 3-[[2-[(3-chloro-4-fluorophenyl)amino]-5-pyrimidin-5-ylpyrimidin-4-yl]amino]propanamide], the inhibition at 13 µM was determined as 77.5%.

As to `CCOC(=O)/C=C/c1cccc(-c2cnc(Nc3ccc(F)c(Cl)c3)nc2NCc2cnn(C)c2)c1` [Example 168, (E)-ethyl 3-(3-(2-(3-chloro-4-fluorophenylamino)-4-((1-methyl-1H-pyrazol-4-yl)methylamino)pyrimidin-5-yl)phenyl)acrylate], the inhibition at 13 µM was determined as 66.4%.

Turning to `COc1ncc(-c2cnc(Nc3cccc(C(N)=O)c3)nc2-n2ccc(C(F)(F)F)n2)cc1C(=O)O` [Example 722, 5-{2-[(3-carbamoylphenyl)amino]-4-[3-(trifluoromethyl)-1H-pyrazol-1-yl]pyrimidin-5-yl}-2-methoxypyridine-3-carboxylic acid], the inhibition at 13 µM turned out to be 93%.

`COc1cc(F)cc(Nc2ncc(-c3ccc(C(=O)O)s3)c(-n3ccc(C(F)(F)F)n3)n2)c1` [Example 887, 5-(2-(3-fluoro-5-methoxyphenylamino)-4-(3-(trifluoromethyl)-1H-pyrazol-1-yl)pyrimidin-5-yl)thiophene-2-carboxylic acid]: the inhibition at 13 µM was 100%.

Take `O=C(O)c1cncc(-c2cnc(Nc3ccc(F)c(Cl)c3)nc2N2CCCC2)c1` [Example 280, 5-(2-(3-chloro-4-fluorophenylamino)-4-(pyrrolidin-1-yl)pyrimidin-5-yl)nicotinic acid]: the inhibition at 13 µM was determined as 83.4%.

With `COc1ncc(-c2cnc(Nc3ccc(F)c(Cl)c3)nc2-n2ccc(C(F)(F)F)n2)cc1/C=C/C(=O)O` [Example 1030, (E)-3-(5-(2-(3-chloro-4-fluorophenylamino)-4-(3-(trifluoromethyl)-1H-pyrazol-1-yl)pyrimidin-5-yl)-2-methoxypyridin-3-yl)acrylic acid], the inhibition at 13 µM turned out to be 100%.

As for `CN(C)CCCNc1nc(Nc2ccc(F)c(Cl)c2)ncc1-c1ccc(C(=O)O)s1` [Example 17, 5-{2-(3-chloro-4-fluorophenylamino)-4-[3-(dimethylamino)propylamino]pyrimidin-5-yl}thiophene-2-carboxylic acid], the inhibition at 13 µM was found to be 54.8%.

On to `CS(=O)(=O)c1cncc(-c2cnc(Nc3ccc(F)c(Cl)c3)nc2N2CCOCC2)c1` [Example 988, N-(3-chloro-4-fluorophenyl)-5-(5-(methylsulfonyl)pyridin-3-yl)-4-morpholinopyrimidin-22-amine], for which the inhibition at 13 µM was 69%.

Regarding `O=C(O)c1cncc(-c2cnc(Nc3ccc(F)c(Cl)c3)nc2-n2ccc(C(F)(F)F)n2)c1` [Example 320, 5-{2-[(3-chloro-4-fluorophenyl)amino]-4-[3-(trifluoromethyl)-1H-pyrazol-1-yl]pyrimidin-5-yl}pyridine-3-carboxylic acid], the inhibition at 13 µM came out at 101%.

Take `COc1cc(Nc2ncc(-c3cncc(C(=O)O)c3)c(-n3nc(C(F)(F)F)cc3C)n2)cc(OC)c1` [Example 636, 5-{2-[(3,5-dimethoxyphenyl)amino]-4-[5-methyl-3-(trifluoromethyl)-1H-pyrazol-1-yl]pyrimidin-5-yl}pyridin-3-carboxylic acid]: the inhibition at 13 µM amounted to 100%.

Take `N#Cc1cc(Nc2ncc(-c3cncc(C(=O)O)c3)c(N3CCOCC3)n2)ccc1F` [Example 440]: the inhibition at 13 µM is 85%.
